Data as given in patent US20180023041A1, “CLEANING COMPOSITIONS CONTAINING A DIAMINOSTILBENE BRIGHTENER” (The Procter & Gamble Company, priority 2016, published 2018).

Assay: Dissolution of brightener from granular laundry detergent formulations in hardness water, UV-Vis absorbance of filtered solution at 350 nm
Format: physicochemical
Settings: in comparison with the control formulation with LAS only; in words
Description: The total surfactant levels for Formulations A-H are maintained the same at 20 wt %.
Prepare 10 gpg hardness water (Ca:Mg=3:1) and place 1L of such hardness water in each of 8 beakers separately. Weight a 6.12g sample from each of the Formulations A-H hereabove respectively, and put the samples into beakers with hardness water on the maganetic stirrers. Stir for 15 mins to dissolve the sample.
Take about 8 ml solution by using a 10m1 injection syringe. Install a 0.45pm filter on the injection syringe for filtering the solution when it is injected out of the syringe. Inject the filtered solution into a sample cuvette of the UV-Vis spectrophotometer. Place the sample cuvette in a measuring position of the UV-Vis spectrophotometer. Read and record the absorbance (ABS) of solutions at a UV wavelength of 350nm respectively.

Structure (SMILES): O=S(=O)([O-])c1ccccc1C=Cc1ccc(-c2ccc(C=Cc3ccccc3S(=O)(=O)[O-])cc2)cc1.[Na+].[Na+] [Florescent Brigthener 351, disodium 2,2′-([1,1′-biphenyl]-4,4′-diyldivinylene)bis(benzenesulphonate)]
- dissolution of the brightener in a surfactant system containing LAS, mid-cut AS, and soap: much less
